Results taken from patent US5817755A, “Synthetic peptide analogs of cross-linked N-telopeptides of type I collagen” (Washington Research Foundation, priority 1997, dated 1998).
Non-standard residues stand in square brackets, D forms with d. Residues, ends and D or L forms follow the SMILES beside them. Aad = N[C@@H](CCCC(=O)O)C(=O)O; pGlu = O=C1CC[C@@H](C(=O)O)N1; Nva = CCC[C@H](N)C(=O)O

Legend:
mAb 1H11 [1] = conditions: linear peptides in which K is simply lysine; WO 91/08478; Hanson et al. 1992; cited from earlier work
mAb 1H11 [2] = assay: OSTEOMARK competitive immunoassay testing apparent affinity of synthetic peptides for mAb 1H11; type: binding; conditions: for Results: peptide binding to mAb 1H11, 1 μg synthetic peptide = X nmole BCE: nanomoles Bone Collagen Equivalents equivalent to 1 μg peptide, back fit into OSTEOMARK standard curve, values between 0.5 and 1 OD averaged; for binding to mAb 1H11 (in words): synthetic peptide, antibody inhibition assay
Excerpt: Generally, a milligram per mL solution of the peptide was made in PBS. The absorbence at A280 was read and the concentration confirmed. Dilutions of the peptide were then made in a buffer such as OSTEOMARK (TM) calibrator diluent (OSTEOMARK Assay, Ostex International, Seattle, Wash.). Working strength concentrations were between 10 and 0.01 micrograms per milliliter.
To test the apparent affinity of the synthetic peptides for mAb 1H11, the OSTEOMARK assay was run using OSTEOMARK kits and components, including monoclonal antibody 1H11. A standard curve was run using OSTEOMARK calibrators. Peptide samples were generally tested at 10, 3, 1, and down to 0.01 μG per mL. The standard OSTEOMARK curve was generated using a four parameter logistic curve fit program (MedData Inc., N.Y., N.Y.). Peptide values were back fit into the standard curve and values were reported in picomoles Bone Collagen Equivalents (BCE)/mL (which equals nanomolar BCE, or nM BCE).
Values in the Table are reported as the number of nanomoles of BCE equivalent to a microgram of a given peptide. Antibody binding values below 500 nMole BCE were considered to be commercially insignificant.

Compound | recognition by mAb 1H11 (in words) (mAb 1H11 [1]) | Results: peptide binding to mAb 1H11, 1 μg synthetic peptide = X nmole BCE (mAb 1H11 [2]) | binding to mAb 1H11 (in words) (mAb 1H11 [2]) | Results: peptide binding to mAb 1H11, 1 μg synthetic peptide = X nmole BCE (mAb 1H11 [2]; listed as 31)
CC(C)[C@H](NC(=O)CNC(=O)[C@H](CCCCN)NC(=O)CNC(=O)[C@H](CC(=O)O)NC(=O)[C@H](Cc1ccc(O)cc1)NC(=O)[C@@H]1CCC(=O)N1)C(=O)NCC(=O)O [SEQ ID NO:9, J Y D G K G V G] ([pGlu]YDGKGVG-OH) | recognized very weakly | 100 nmole BCE | very weak binding partner | –
CC(C)[C@H](NC(=O)CNC(=O)[C@H](CCC(=O)O)NC(=O)[C@H](C)NC(=O)[C@H](CC(=O)O)NC(=O)[C@H](Cc1ccc(O)cc1)NC(=O)[C@@H]1CCC(=O)N1)C(=O)NCC(=O)O [SEQ ID NO:27, J Y D A E G V G] ([pGlu]YDAEGVG-OH) | – | < 50 nmole BCE | substantially eliminates mAb 1H11 binding affinity | –
CC(C)[C@H](NC(=O)[C@H](C)NC(=O)[C@H](CCC(=O)O)NC(=O)CNC(=O)[C@H](CC(=O)O)NC(=O)[C@H](Cc1ccc(O)cc1)NC(=O)[C@@H]1CCC(=O)N1)C(=O)NCC(=O)O [SEQ ID NO:28, J Y D G E A V G] ([pGlu]YDGEAVG-OH) | – | < 50 nmole BCE | loss of mAb 1H11 binding affinity | –
CC(C)[C@H](NC(=O)CNC(=O)[C@H](CCC(=O)O)NC(=O)CNC(=O)[C@H](CCC(=O)O)NC(=O)[C@H](Cc1ccc(O)cc1)NC(=O)[C@@H]1CCC(=O)N1)C(=O)NCC(=O)O [SEQ ID NO:30, J Y E G E G V G] ([pGlu]YEGEGVG-OH) | – | 3000 nmole BCE | – | –
CC(C)[C@H](NC(=O)CNC(=O)[C@H](CC(=O)O)NC(=O)CNC(=O)[C@H](CC(=O)O)NC(=O)[C@H](Cc1ccc(O)cc1)NC(=O)[C@@H]1CCC(=O)N1)C(=O)NCC(=O)O [SEQ ID NO:31, J Y D G D G V G] ([pGlu]YDGDGVG-OH) | – | – | – | 1400 nmole BCE
CC(C)[C@H](NC(=O)CNC(=O)[C@H](CC(=O)O)NC(=O)CNC(=O)[C@H](CCC(=O)O)NC(=O)[C@H](Cc1ccc(O)cc1)NC(=O)[C@@H]1CCC(=O)N1)C(=O)NCC(=O)O [SEQ ID NO:32, J Y E G D G V G] ([pGlu]YEGDGVG-OH) | – | 1000 nmole BCE | – | –
CC(C)[C@H](NC(=O)CNC(=O)[C@H](CCCC(=O)O)NC(=O)CNC(=O)[C@H](CC(=O)O)NC(=O)[C@H](Cc1ccc(O)cc1)NC(=O)[C@@H]1CCC(=O)N1)C(=O)NCC(=O)O [SEQ ID NO:34, J Y D G X^4 G V G] ([pGlu]YDG[Aad]GVG-OH) | – | 750 nmole BCE | – | –
CC(C)[C@H](NC(=O)CNC(=O)[C@H](CCC(=O)O)NC(=O)CNC(=O)[C@H](CC(=O)O)NC(=O)[C@H](Cc1ccccc1)NC(=O)[C@@H]1CCC(=O)N1)C(=O)NCC(=O)O [SEQ ID NO:36, J F D G E G V G] ([pGlu]FDGEGVG-OH) | – | 14 nmole BCE | blocks mAb 1H11 binding | –
CC(C)[C@H](NC(=O)CNC(=O)[C@H](CCC(=O)O)NC(=O)[C@@H](NC(=O)[C@H](CC(=O)O)NC(=O)[C@H](Cc1ccc(O)cc1)NC(=O)[C@@H]1CCC(=O)N1)C(C)C)C(=O)NCC(=O)O [SEQ ID NO:37, J Y D V E G V G] ([pGlu]YDVEGVG-OH) | – | 6 nmole BCE | substantially eliminates mAb 1H11 binding affinity | –
CCC[C@H](NC(=O)CNC(=O)[C@H](CC(=O)O)NC(=O)[C@H](Cc1ccc(O)cc1)NC(=O)[C@@H]1CCC(=O)N1)C(=O)NCC(=O)N[C@H](C(=O)NCC(=O)O)C(C)C [SEQ ID NO:38, J Y D G X^5 G V G] ([pGlu]YDG[Nva]GVG-OH) | – | 860 nmole BCE | – | –
CC(C)[C@H](NC(=O)CNC(=O)[C@H](CCC(=O)O)NC(=O)CNC(=O)[C@H](CC(=O)O)NC(=O)[C@H](Cc1ccc(O)cc1)NC(=O)[C@@H]1CCC(=O)N1)C(=O)NCC(N)=O [SEQ ID NO:44, J Y D G E G V X^6] ([pGlu]YDGEGVG-NH2) | – | < 50 nmole BCE | prevented recognition | –
J Y D G C G V G [SEQ ID NO:2] | – | 2500 nmole BCE | excellent binding to mAb 1H11 | –
J Y D G E G V G L [SEQ ID NO:40, b13: -Lys added to the C-terminus] | – | < 50 nmole BCE | prevents mAb 1H11 binding | –
J Y D G E G V G [SEQ ID NO:29] | – | < 50 nmole BCE | eliminate the requisite binding of mAb 1H11 | –
